Reference: publication PMC10302146, “Dual Anta-Inhibitors Targeting Protein Kinase CK1δ and A2A Adenosine Receptor Useful in Neurodegenerative Disorders” (Molecules, 2023)

Assays:
[1] = tested on: N13 microglial cells; assay: N13 cell viability, CK cocktail 48 h pretreatment then ligand (A2AAR antagonist protocol); conditions: for effect after CK cocktail damage in the presence of NECA: compound 1 7.5 µM, compound 2 4.5 µM, NECA 10 µM; for effect after CK cocktail damage in the presence of NECA / counteraction of CK cocktail effect (cell viability): 60 min; for effect after CK cocktail damage in the presence of NECA / rescue of inflammatory damage (cell viability): after CK cocktail 20 ng/mL 48 h; for rescue of inflammatory damage (cell viability) / counteraction of CK cocktail effect (cell viability): lower concentrations (0.625 µM compound 1, 0.375 µM compound 2); for rescue of inflammatory damage (cell viability): 30 min; for counteraction of CK cocktail effect (cell viability): after CK cocktail 48 h
Experimental: Given the nature of compounds, dual A2A/CK1δ anta-inhibitors, their neuroprotective effect against a neuroinflammatory insult was investigated following two different approaches aimed at studying the antagonist activity on the A2AAR and the inhibitor effect on CK1δ. […] The concentrations used were 35, 65, and 400 µM at 60 min of incubation.
N13 cells were plated in 96-well plates at the confluence of 1 × 10^4 cells/well and incubated overnight. Cells were divided into two groups in order to study the activity of compounds on A2AAR and CK1δ (Scheme 1). […] Cells of the second group were pretreated with 2 µL at different concentrations of understudy ligand, or the reference compound PF670462, for 30 or 60 min and then with further addition of a proinflammatory cocktail of cytokines for 48 h (Scheme 1). After treatment, 20 µL of CellTiter 96® AQueous One Solution Reagent was added to each well to a final volume of 100 µL. After 1 h of incubation, absorbance was measured at 492 nm in the microplate reader GENiosPro. Cell viability was estimated as the relation between the OD of treated cells and the OD of untreated cells in percentage. An untreated control and a control with the solvent were run. Experiments were performed in triplicate.

[2] = Everted gut sac absorption study (duodenum), HPLC-MS; type: in vitro ADME, rat; conditions: for Papp at 60 min: male, Wistar, rat
Experimental: Despite these remarkable assumptions, as many known kinase inhibitors are very often unable to cross lipid bilayer membranes, including the blood–brain barrier, and are, therefore, only suitable for non-central nervous system disorders, the ability of A2A/CK1δ double anta-inhibitors to cross the intestinal barrier was investigated. The experiment was performed using the everted gut sac model. The everted sac model is an efficient tool for studying in vitro drug absorption mechanisms, intestinal metabolism of drugs, the role of transporters in drug absorption, and investigating the role of intestinal enzymes during drug transport through the intestine. Compounds 1 and 2 were measured by liquid chromatography-mass spectrometry (LC-MS) in the mucosal and serosal media to provide a complete picture of the transport.
Compounds 1 and 2 were incubated in the duodenum for 60 min at concentrations of 10^−4, 10^−5, and 10^−6 M to evaluate their absorption.
The concentrations 10^−4, 10^−5, and 10^−6 M correspond to 24.6, 2.46, and 0.246 μg/mL of compound 1 and to 37.6, 3.76, and 0.376 μg/mL of compound 2 due to different molecular weights. Glucose was used to verify the integrity and viability of the gut sacs. Intestine sacs were exposed to the concentrations of compounds under study with respect to glucose-treated tissues. After incubation time, fluids from the mucosal (outside the sacs) and serosal (inside the sacs) sides of the rat gut sacs were collected and detected by HPLC-MS analysis. As expected, the amount of the absorbed analytes was concentration dependent even if compound 1 was much better absorbed with respect to compound 2 (Table 2 and Table 3). […] Data are reported as means ± SE (n = 4–5 experiments). The amount of compounds absorbed compared to the initial concentration is statistically different (p < 0.05).
Adult male Wistar rats (250–300 g; 11–12 weeks) were sacrificed by cervical dislocation, the small intestine was removed, and the duodenum segment was isolated and washed in TC199 medium. The intestine was divided into segments of 2–2.5 cm in length (4 for each animal), and each of them was everted on a glass rod of […] in diameter. All segments were closed at one end with a silk thread, filled with fresh oxygenated TC199 medium, and closed at the other end, creating a shut section (sac). Each sac was placed in a 50 mL beaker containing 9.0 mL of medium aerated with oxygen (O2/CO2, 95%:5%) and thermostated at 37 °C. A total of 1 mL of medium containing one of the samples at a concentration of 1 uM, 10 uM, or 100 uM was added. Each concentration was tested in duplicate in three different animals. In order to mimic the intestine peristalsis, gut sacs were incubated in an oscillating water bath (60 cycles/min). After 1h incubation, sacs were removed, washed in saline solution (0.9% NaCl), and wiped with filter paper. The content of each sac (serosal fluid) was collected into a 1.5 mL Eppendorf tube, and the sac was weighed before and after serosal fluid removal to calculate the exact volume contained inside. Samples were centrifuged for 15 min. at 13,500× g, and the supernatant aqueous solution was filtered through a microporous membrane (0.45 μm) for high-performance liquid chromatography (HPLC). The amount of compound 1 or 2 present inside (serosal fluid) and outside (mucosal fluid) of each sac was calculated by HPLC with diode-array detection (HPLC-DAD) analysis.
The obtained samples from the everted sac model experiment were centrifuged for 20 min at 13,500× g rpm, and the supernatant aqueous solution was filtered through a microporous membrane (0.45 μm pore size) for high-performance liquid chromatography-mass spectrometry analysis. LC-MS analysis was carried out using an HPLC Agilent Technologies 1260 Infinity II and a single quadrupole mass spectrometer. […]

[3] = target: human recombinant A2AAR; parameters: method as in PMID 37259317; conditions: [3H]NECA, membranes from CHO cells stably transfected; means ± standard errors; read-out: KiA2A; cited from earlier work
[4] = duodenum, 60 min, initial 10^−4 M (24.6 μg/mL compound 1, 37.6 μg/mL compound 2)
[5] = duodenum, 60 min, initial 10^−5 M (2.46 μg/mL compound 1, 3.76 μg/mL compound 2)
[6] = duodenum, 60 min, initial 10^−6 M (0.246 μg/mL compound 1, 0.376 μg/mL compound 2)

| Structure (SMILES) | effect after CK cocktail damage in the presence of NECA [1] | rescue of inflammatory damage (cell viability) [1] | counteraction of CK cocktail effect (cell viability) [1] | Percentage of Drug Absorption (A%) ([2]; 10^−4 M, 60 min) | Percentage of Drug Retention (Ad%) ([2]; 10^−4 M, 60 min) | Percentage of Drug Absorption (A%) ([2]; 10^−5 M, 60 min) | Percentage of Drug Retention (Ad%) ([2]; 10^−5 M, 60 min) | Absorbed Concentration [2, 4] | Absorbed Concentration [2, 5] | Absorbed Concentration [2, 6] | Ki [3] | other results |
| --- | --- | --- | --- | --- | --- | --- | --- | --- | --- | --- | --- | --- |
| CN(C)c1nc(N)c2ncn(C3CCCC3)c2n1 [compound 1, 9-Cyclopentyl-N2,N2-dimethyl-9H-purine-2,6-diamine] | significantly lower than that obtained in the absence of NECA | unable to rescue the inflammatory damage | able to counteract the effect of the CK cocktail | 47% | 2% | 42% | 10% | 11.5 µg/mL | 1.03 µg/mL | 0.059 µg/mL | 0.123 ± 0.002 µM | viability at 7.5 µM ([1]; N13, 48 h, read-out: cell viability): 89%; Percentage of Drug Absorption (A%) ([2]; 10^−6 M, 60 min): 24%; Percentage of Drug Retention (Ad%) ([2]; 10^−6 M, 60 min): 35%; Papp at 60 min ([2]; 10^−4 M): 330 nm/s; Papp at 60 min ([2]; 10^−5 M): 296 nm/s; Papp at 60 min ([2]; 10^−6 M): 169 nm/s |
| CN(C)c1nc(NCc2nc3ccccc3[nH]2)c2ncn(C3CCCC3)c2n1 [compound 2, N^6-methyl-(2-benzimidazolyl)-2-dimethyamino-9-cyclopentyladenine] | significantly lower than that obtained in the absence of NECA | unable to rescue the inflammatory damage | able to counteract the effect of the CK cocktail | 23% | 55% | 15% | 66% | 8.66 µg/mL | 0.576 µg/mL | not detectable | 0.0762 ± 0.173 µM | cell viability [1]: 125% ± 3.1; Papp (×10^−6 cm/s) ([2]; 10^−4 M, 60 min): 16.1 ×10^−6 cm/s; Papp (×10^−6 cm/s) ([2]; 10^−5 M, 60 min): 10.8 ×10^−6 cm/s; metabolic conversion in everted gut sac (HPLC analysis) ([2]; duodenum, 60 min): partially converted into its metabolite, compound 1 |
